Data taken from the NIST ThermoML archive (doi:10.1021/je030222n).

Settings: Liquid

CCCCO [butan-1-ol]
Closed cell (Static) method
Settings | vapor or sublimation pressure [kPa]
314.19 K | 2.7
323.2 K | 4.49
338.21 K | 10.38
342.17 K | 12.89
352.81 K | 21.44
361.24 K | 31.52
371.94 K | 49.26

CCCCN=C=O [butyl isocyanate]
Settings | vapor or sublimation pressure [kPa]
294.15 K | 2.48
323.24 K | 9.52
338.02 K | 17.88
353.02 K | 32.1
362.65 K | 44.82
372.6 K | 61.84
387.87 K | 99.08

CCOC(N)=O [ethyl carbamate]
Closed cell (Static) method
Settings | vapor or sublimation pressure [kPa]
322.6 K | 0.88
337.2 K | 1.287
342.3 K | 1.494
352.5 K | 1.957
362.6 K | 2.381
371.7 K | 2.953

CCCCCCCCC [nonane]
Closed cell (Static) method
Settings | vapor or sublimation pressure [kPa]
322.59 K | 2.34
338.33 K | 4.99
351.53 K | 9
371.37 K | 19.81
